# Patent US5556744A, “Methods and compositions for diagnosing and treating certain HIV infected patients” (The Trustees of the University of Pennsylvania, priority 1994, dated 1996)
# What was measured:
# [1] = system: maternal HIV+ sera (antibodies); experiment: RIA / ELISA binding of maternal HIV+ sera to gp120 and gp41 peptides (Example 3); set-up: species or system human
# Summary of the method: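 Peptides were coated at 10 μg/ml in carbonate buffer pH 9.6 and blocked with 1% BSA. Sera at 1:50 and 1:500 were incubated overnight at 4°C and detected with ¹²⁵I anti-human IgG (RIA) or HRP/TMB at OD450 (ELISA). Specific binding was taken as peptide minus no-peptide wells, scored as a ratio to normal human serum.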
# [2] = system: maternal sera (antibodies); experiment: ELISA peptide-binding of maternal sera (Example 6); set-up: species or system human; conditions: for Number of Non-Transmitters which bound to peptide / Percent of Non-Transmitters which bound to peptide: N = 12; for Number of Transmitters which bound to peptide / Percent of Transmitters which bound to peptide: N = 4
# Excerpt: A total of 86 maternal sera samples obtained from patients of the Hospital of the University of Pennsylvania during the third trimester of pregnancy were used in this study 58 (67%) were non-transmitters and 28 (33%) were transmitters. This is approximately consistent with the national average (i.e. a rate of transmission between 25-30%). Transmission status was based upon serological or molecular diagnosis of children (at an age of greater than 15 months) born to these mothers. Because of the constraints on the volume of serum available for many of these samples, not all sera were analyzed with all the peptides. However, each sera sample was run with at least 40 peptides.
# These peptides are of an average length of 16 amino acids and covered the entire external as well as the transmembrane glycoprotein of HIV-1. Peptide binding was analyzed by ELISA essentially as described in Example 3.
# The results of one study, using some of the peptides identified above among others, is provided in Table 12, which illustrates the number and percent of non-transmitters which bound to the tested peptide. The percentage designation refers to the percentage of sera samples which bound to a particular peptide. A value of greater than 0% means that at least one of the samples bound to the particular peptides.
# [3] = Serum No. 1, Non-Transmission Group
# [4] = Serum No. 2, Non-Transmission Group
# [5] = Serum No. 3, Non-Transmission Group
# [6] = Serum No. 4, Transmission Group
# [7] = Serum No. 5, Transmission Group
# [8] = Serum No. 6, Non-Transmission Group
# [9] = Serum No. 7, Non-Transmission Group
# [10] = Serum No. 8, Non-Transmission Group
# [11] = Serum No. 9, Non-Transmission Group
# [12] = Serum No. 10, Transmission Group
# [13] = Serum No. 11, Non-Transmission Group
# [14] = Serum No. 12, Non-Transmission Group
# [15] = Serum No. 13, Transmission Group
# [16] = Serum No. 14, Transmission Group
# [17] = Serum No. 15, Transmission Group
# [18] = Serum No. 16, Non-Transmission Group
# [19] = Serum No. 17, Non-Transmission Group
# [20] = Serum No. 18, Non-Transmission Group
# [21] = Serum No. 19, Transmission Group
# [22] = Serum No. 20, Non-Transmission Group
Substance,"Binding of maternal HIV+ serum to peptide (sera/NHS ratio) [1, 3]","Binding of maternal HIV+ serum to peptide (sera/NHS ratio) [1, 4]","Binding of maternal HIV+ serum to peptide (sera/NHS ratio) [1, 5]","Binding of maternal HIV+ serum to peptide (sera/NHS ratio) [1, 6]","Binding of maternal HIV+ serum to peptide (sera/NHS ratio) [1, 7]","Binding of maternal HIV+ serum to peptide (sera/NHS ratio) [1, 8]","Binding of maternal HIV+ serum to peptide (sera/NHS ratio) [1, 9]","Binding of maternal HIV+ serum to peptide (sera/NHS ratio) [1, 10]","Binding of maternal HIV+ serum to peptide (sera/NHS ratio) [1, 11]","Binding of maternal HIV+ serum to peptide (sera/NHS ratio) [1, 12]","Binding of maternal HIV+ serum to peptide (sera/NHS ratio) [1, 13]","Binding of maternal HIV+ serum to peptide (sera/NHS ratio) [1, 14]","Binding of maternal HIV+ serum to peptide (sera/NHS ratio) [1, 15]","Binding of maternal HIV+ serum to peptide (sera/NHS ratio) [1, 16]","Binding of maternal HIV+ serum to peptide (sera/NHS ratio) [1, 17]","Binding of maternal HIV+ serum to peptide (sera/NHS ratio) [1, 18]",Number of Non-Transmitters which bound to peptide [2],Percent of Non-Transmitters which bound to peptide [2] [%],Number of Transmitters which bound to peptide [2],Percent of Transmitters which bound to peptide [2] [%],other results
IGALFLGFGAAGST [Peptide 117],"- (specific OD450 or cpm of sera sample binding to peptide divided by the specific OD450 or cpm of NHS sample binding to peptide, which value is less than 2)","- (specific OD450 or cpm of sera sample binding to peptide divided by the specific OD450 or cpm of NHS sample binding to peptide, which value is less than 2)","- (specific OD450 or cpm of sera sample binding to peptide divided by the specific OD450 or cpm of NHS sample binding to peptide, which value is less than 2)","- (specific OD450 or cpm of sera sample binding to peptide divided by the specific OD450 or cpm of NHS sample binding to peptide, which value is less than 2)","- (specific OD450 or cpm of sera sample binding to peptide divided by the specific OD450 or cpm of NHS sample binding to peptide, which value is less than 2)","- (specific OD450 or cpm of sera sample binding to peptide divided by the specific OD450 or cpm of NHS sample binding to peptide, which value is less than 2)","- (specific OD450 or cpm of sera sample binding to peptide divided by the specific OD450 or cpm of NHS sample binding to peptide, which value is less than 2)","- (specific OD450 or cpm of sera sample binding to peptide divided by the specific OD450 or cpm of NHS sample binding to peptide, which value is less than 2)","- (specific OD450 or cpm of sera sample binding to peptide divided by the specific OD450 or cpm of NHS sample binding to peptide, which value is less than 2)","- (specific OD450 or cpm of sera sample binding to peptide divided by the specific OD450 or cpm of NHS sample binding to peptide, which value is less than 2)","- (specific OD450 or cpm of sera sample binding to peptide divided by the specific OD450 or cpm of NHS sample binding to peptide, which value is less than 2)","- (specific OD450 or cpm of sera sample binding to peptide divided by the specific OD450 or cpm of NHS sample binding to peptide, which value is less than 2)","- (specific OD450 or cpm of sera sample binding to peptide divided by the specific OD450 or cpm of NHS sample binding to peptide, which value is less than 2)","- (specific OD450 or cpm of sera sample binding to peptide divided by the specific OD450 or cpm of NHS sample binding to peptide, which value is less than 2)","- (specific OD450 or cpm of sera sample binding to peptide divided by the specific OD450 or cpm of NHS sample binding to peptide, which value is less than 2)","- (specific OD450 or cpm of sera sample binding to peptide divided by the specific OD450 or cpm of NHS sample binding to peptide, which value is less than 2)",2,16.7,0,0,"Binding of maternal HIV+ serum to peptide (sera/NHS ratio) [1, 19]: - (specific OD450 or cpm of sera sample binding to peptide divided by the specific OD450 or cpm of NHS sample binding to peptide, which value is less than 2); Binding of maternal HIV+ serum to peptide (sera/NHS ratio) [1, 20]: - (specific OD450 or cpm of sera sample binding to peptide divided by the specific OD450 or cpm of NHS sample binding to peptide, which value is less than 2); Binding of maternal HIV+ serum to peptide (sera/NHS ratio) [1, 21]: - (specific OD450 or cpm of sera sample binding to peptide divided by the specific OD450 or cpm of NHS sample binding to peptide, which value is less than 2); Binding of maternal HIV+ serum to peptide (sera/NHS ratio) [1, 22]: - (specific OD450 or cpm of sera sample binding to peptide divided by the specific OD450 or cpm of NHS sample binding to peptide, which value is less than 2)"
RKSIGIQRGPGR [Peptide 1029-33],+ (which value is between 2 to 3),++ (which value is greater than 3),+ (which value is between 2 to 3),"- (specific OD450 or cpm of sera sample binding to peptide divided by the specific OD450 or cpm of NHS sample binding to peptide, which value is less than 2)",+ (which value is between 2 to 3),"- (specific OD450 or cpm of sera sample binding to peptide divided by the specific OD450 or cpm of NHS sample binding to peptide, which value is less than 2)","- (specific OD450 or cpm of sera sample binding to peptide divided by the specific OD450 or cpm of NHS sample binding to peptide, which value is less than 2)","- (specific OD450 or cpm of sera sample binding to peptide divided by the specific OD450 or cpm of NHS sample binding to peptide, which value is less than 2)","- (specific OD450 or cpm of sera sample binding to peptide divided by the specific OD450 or cpm of NHS sample binding to peptide, which value is less than 2)","- (specific OD450 or cpm of sera sample binding to peptide divided by the specific OD450 or cpm of NHS sample binding to peptide, which value is less than 2)",+ (which value is between 2 to 3),+ (which value is between 2 to 3),+ (which value is between 2 to 3),"- (specific OD450 or cpm of sera sample binding to peptide divided by the specific OD450 or cpm of NHS sample binding to peptide, which value is less than 2)",+ (which value is between 2 to 3),"- (specific OD450 or cpm of sera sample binding to peptide divided by the specific OD450 or cpm of NHS sample binding to peptide, which value is less than 2)",0,0,0,0,"Percentage of sera samples demonstrating binding to peptide, non-transmitter ([1]; Non-transmitter group, n = 13): 53.8%; Binding of maternal HIV+ serum to peptide (sera/NHS ratio) [1, 19]: + (which value is between 2 to 3); Binding of maternal HIV+ serum to peptide (sera/NHS ratio) [1, 20]: - (specific OD450 or cpm of sera sample binding to peptide divided by the specific OD450 or cpm of NHS sample binding to peptide, which value is less than 2); Binding of maternal HIV+ serum to peptide (sera/NHS ratio) [1, 21]: - (specific OD450 or cpm of sera sample binding to peptide divided by the specific OD450 or cpm of NHS sample binding to peptide, which value is less than 2); Binding of maternal HIV+ serum to peptide (sera/NHS ratio) [1, 22]: ++ (which value is greater than 3); Percentage of sera samples demonstrating binding to peptide, transmitter ([1]; Transmitter / transmission group, n = 7): 42.9%; Percent of the maternal serum samples that bound to the peptide ([1]; all 20 samples): 50%"
"DC419 (IIIB): Peptide DC419 (IIIB), Sequence ID No. 191 (TGDIITLPCRIKQIINRWQV)",–,–,–,–,–,–,–,–,–,–,–,–,–,–,–,–,0,0,0,0,–
"T19V: Peptide T19V, Sequence ID No. 195; described in the January 1991 Catalog (TGPCTNVSTVQCTHGIRPV)",–,–,–,–,–,–,–,–,–,–,–,–,–,–,–,–,3,25,0,0,–
CNNKTFNGTGFCTNVSTVQ (CNNKTFNGTGPCTNVSTVQ) [Peptide C19Q],–,–,–,–,–,–,–,–,–,–,–,–,–,–,–,–,4,–,0,0,–
